From patent US8933270B2, “Use of docasatrienes, resolvins, and their stable analogs in the treatment of airway diseases and asthma” (The Brigham and Women's Hospital, Inc., priority 2002, dated 2015)

How the values were obtained:
[1] = test system: PMN infiltration; experiment: Zymosan A-induced peritonitis; assay type: in vivo, FVB mice; settings: dose increased to 200 ng, intravenous bolus
[2] = test system: PMN infiltration; experiment: Zymosan A-induced peritonitis; assay type: in vivo, FVB mice; settings: for inhibition of PMN/leukocyte infiltration: i.v. bolus before zymosan A, lavage at 2 h
Protocol: (§1) FIG. 5 depicts Bioimpact properties of omega-3-derived Resolvins. A) Human glioma cells: Inhibition of TNF-stimulated IL-1β transcripts DBTRG-05MG cells 10^6/ml were stimulated with 50 ng/ml of human recombinant TNFα for 16 hours to induce expression of IL-1β transcripts. Concentration dependence with COX-2 products: 17-HDHA (n), 13-HDHA (l)and di-/tri-HDHA (n). […] (insets) Results are representative of RT-PCR gels of MG cells exposed to 100 nM of 13-HDHA or 17-HDHA and graphed after normalization of the IL-1β transcripts using GAPDH. B) Influence of eicosanoids and docosanoids on fMLP-induced neutrophil migration across micovascular endothelial monolayers Neutrophils (1×10^6 cells/monolayer) were exposed to vehicle containing buffer, or indicated concentrations of aspirin-triggered LXA4 analog (closed diamonds) 5S,12,18R-triHEPE (closed squares), 17R-HDHA (closed circles) or 13-HDHA (closed triangles) for 15 minutes at 37° C. Neutrophils were then layered on HMVEC monolayers and stimulated to transmigrate by a 10^−8 M fMLP gradient for 1 hr at 37° C. Transmigration was assessed by quantitation of the neutrophil marker myeloperoxidase. Results are presented as mean±SEM number of PMN (n=8-12 monolayers per condition). C) Reduction of PMN in murine peritonitis and skin pouch peritonitis: Compounds (100 ng in 120 μL sterile saline) were injected by intravenous bolus injection into the mouse tail vein and followed by 1 ml zymosan A (1 mg/ml) into the peritoneum. Peritoneal lavages were collected (2 h) and cell types were enumerated.
Human PMN transendothelial migration was quantitated by monitoring myeloperoxidase (MPO) an azurophilic granule marker as in (34, 37). Inflammatory exudates were initiated with intrapouch injection of recombinant mouse TNFα (100 ng/pouch; R&D Systems) into dorsal air pouches (10) of 6-8 wk male FVB mice fed laboratory rodent diet 5001 (Lab Diet, Purina Mills) containing less than 0.25% arachidonic acid, 1.49% EPA and 1.86% DHA followed by ASA (500 μg) at 3.5 h and 300 μg DHA/pouch at 4 h post-TNFα injection. At 6 h (within the resolution phase), pouches were lavaged (3 ml saline) and exudate cells were enumerated Inhibition of TNFα stimulated (100 ng/pouch) PMN infiltration with i.v. tail injection of either 17R-HDHA (as prepared with COX-2 vide infra), 5S,12,18R-HEPE, or a 15-epi-LXA4 analog were determined with pouch lavages taken at 4 h. Peritonitis was performed using 6 to 8-week-old FVB male mice (Charles River Laboratories) fed laboratory Rodent Diet 5001 (Purina Mills) that were anesthetized with isoflurane, and compounds to be tested (125 μl) were administered intravenously. Zymosan A in 1 ml (1 mg/ml) was injected ˜1-1.5 min later in the peritoneum. Each test compound (100 ng/incubation, i.e. 17R-HDHA in ethanol) or vehicle alone was suspended in ˜5 μl and mixed in sterile saline 120 μl. Two hours after the intraperitoneal injections, and in accordance with the Harvard Medical Area Standing Committee on Animals protocol #02570, mice were euthanized and peritoneal lavages rapidly collected for enumeration.
Peritonitis was induced in 6 to 8 week old male FVB mice by peritoneal injection of 1 mg Zymosan A. Compounds 4,17S and 10,17S-diHDHA were injected by intravenous bolus injection, 1.5 minutes before Zymosan A treatment. Two hours after induction of peritonitis, rapid peritoneal lavages were collected and cell type enumeration was performed.

[3] = test system: human PMN; experiment: fMLP-induced neutrophil migration across microvascular endothelial monolayers (MPO); assay type: cell-based; settings: nM range; 10^-8 M fMLP gradient, 1 hr
Protocol: FIG. 5 depicts Bioimpact properties of omega-3-derived Resolvins. A) Human glioma cells: Inhibition of TNF-stimulated IL-1β transcripts DBTRG-05MG cells 10^6/ml were stimulated with 50 ng/ml of human recombinant TNFα for 16 hours to induce expression of IL-1β transcripts. Concentration dependence with COX-2 products: 17-HDHA (n), 13-HDHA (l)and di-/tri-HDHA (n). […] (insets) Results are representative of RT-PCR gels of MG cells exposed to 100 nM of 13-HDHA or 17-HDHA and graphed after normalization of the IL-1β transcripts using GAPDH. […] Transmigration was assessed by quantitation of the neutrophil marker myeloperoxidase. […]
Human PMN transendothelial migration was quantitated by monitoring myeloperoxidase (MPO) an azurophilic granule marker as in (34, 37). […] At 6 h (within the resolution phase), pouches were lavaged (3 ml saline) and exudate cells were enumerated Inhibition of TNFα stimulated (100 ng/pouch) PMN infiltration with i.v. tail injection of either 17R-HDHA (as prepared with COX-2 vide infra), 5S,12,18R-HEPE, or a 15-epi-LXA4 analog were determined with pouch lavages taken at 4 h. […]

[4] = test system: IL-1β transcripts in DBTRG-05MG cells; experiment: Inhibition of TNF-stimulated IL-1β transcripts (RT-PCR); assay type: cell-based, human; settings: Homo sapiens, DBTRG-05MG; 50 ng/ml TNFα, 16 h; read-out: IC50, inhibition of TNFα-induced IL-1β transcripts / cytokine expression
Protocol: as §1, with “C) Reduction of PMN in murine peritonitis and skin pouch peritonitis: Compounds (100 ng in 120 μL sterile saline) were injected by intravenous bolus injection into the mouse tail vein and followed by 1 ml zymosan A (1 mg/ml) into the peritoneum. Peritoneal lavages were collected (2 h) and cell types were enumerated.” left out
Human glioma cells DBTRG-05MG cells (ATCC) were cultured as recommended by ATCC. […] Results were analyzed using the NIH Image program (http://rsb.info.nih.gov/nih-image).

[5] = test system: leukocyte infiltration; experiment: TNFα-induced dorsal air pouch; assay type: in vivo, FVB mice; settings: i.v. or local (intrapouch) administration, lavage at 4 h
[6] = test system: leukotrienes; experiment: Leukotriene formation by human PMN; assay type: cell-based; settings: in vitro, n=4, not shown
[7] = test system: leukotrienes; experiment: Leukotriene formation in murine exudates; assay type: in vivo; settings: n=4, not shown
[8] = test system: thromboxane and prostanoids; experiment: Thromboxane and prostanoid production in air pouch exudates; assay type: in vivo, FVB mice; settings: ASA 500 μg per pouch
Description: It is noteworthy that the Lab Diet 5001 used to feed these mice contained 1.86% DHA and 1.49% EPA with <0.25% arachidonic acid (Purina Mills).

[9] = target: T1, human recombinant COX-2 (Homo sapiens, UniProt P35354); experiment: Impact of NSAIDs on COX-2 conversion of DHA; assay type: biochemical
T1 construct: made in house; host or cells: Sf9 insect cells (microsomal fractions)
T1 sequence (P35354 18-604): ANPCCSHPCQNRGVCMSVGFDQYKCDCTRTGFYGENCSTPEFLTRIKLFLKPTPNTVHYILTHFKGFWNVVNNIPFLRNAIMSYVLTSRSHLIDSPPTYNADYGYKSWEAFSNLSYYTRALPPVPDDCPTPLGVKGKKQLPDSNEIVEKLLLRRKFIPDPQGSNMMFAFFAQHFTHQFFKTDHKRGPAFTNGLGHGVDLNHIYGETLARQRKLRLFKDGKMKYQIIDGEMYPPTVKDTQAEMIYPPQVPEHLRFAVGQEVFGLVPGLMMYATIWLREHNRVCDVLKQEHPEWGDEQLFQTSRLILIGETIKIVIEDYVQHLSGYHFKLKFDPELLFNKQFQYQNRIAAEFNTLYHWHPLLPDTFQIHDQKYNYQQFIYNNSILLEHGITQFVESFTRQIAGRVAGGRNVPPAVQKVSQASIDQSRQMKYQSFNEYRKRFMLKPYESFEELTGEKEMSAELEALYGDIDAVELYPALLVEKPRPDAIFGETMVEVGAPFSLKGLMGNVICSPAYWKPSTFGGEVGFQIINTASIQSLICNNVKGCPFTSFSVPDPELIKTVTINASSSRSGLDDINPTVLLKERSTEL
Protocol: (§2) Human recombinant COX-2 was overexpressed in Sf9 insect cells (ATCC). The microsomal fractions (˜8 μl) were suspended in Tris (100 mM, pH 8.0) as in (35). ASA was incubated (˜2 mM, 37° C., 30 min) with COX-2 before addition of DHA (10 μM), or in some experiments [1-^14C]-labeled DHA (from American Radiolabeled Chemicals, Inc.), and conversions were monitored in parallel using [1^−14C]-labeled C20:4 (with ASA) (as in FIG. 2; also see text).
(§3) Incubations were extracted with deuterium-labeled internal standards (15-HETE and C20:4) for LC-MS-MS analysis as in (33) using a Finnigan LCQ liquid chromatography ion trap tandem mass spectrometer (San Jose, Calif.) equipped with a LUNA C18-2 (150×2 mm×5 μm or 100×2 mm×5 μm) column and a rapid spectra scanning UV diode array detector that monitored UV absorbance ˜0.2 min prior to samples entering the MS-MS. All intact cell incubations and in vivo exudates were stopped with 2 ml cold methanol and kept at −80° C. for >30 minutes. Samples were extracted using C18 solid phase extraction and analyzed using GC-MS (see Table 2) (Hewlett-Packard), thin layer chromatography or tandem liquid chromatography-mass spectrometry (LC-MS-MS). Also, a Chiralcel OB-H column (4.6×250 mm; J. T. Baker) was used to determine R and S alcohol configurations of monohydroxy-PUFA using isocratic mobile phase (hexane:isopropanol; 97.5:2.5, vol:vol, with a 0.6 ml/min flow rate). Detailed procedures for isolation, quantitation and structural determination of lipid-derived mediators were recently reported (36) and used here essentially as reported for elucidation of novel products.
Results are the mean±SEM, n=3. Products were extracted, identified, and quantitated using deuterium internal standards and LC-MS-MS (see Methods).

[10] = target: T2, ASA-acetylated COX-2 (Homo sapiens, UniProt P35354); experiment: Substrate conversion by ASA-acetylated COX-2; assay type: biochemical; settings: C20:4 to 15R-HETE, DHA to 17R-HDHA; mean±S.E.M., n=3
T2 construct: made in house; host or cells: Sf9 insect cells (microsomal fractions), then treated with about 2 mM ASA
T2 sequence (P35354 18-604): T1 sequence (P35354 18-604)
Protocol: as §2
as §3, with “Also, a Chiralcel OB-H column (4.6×250 mm; J. T. Baker) was used to determine R and S alcohol configurations of monohydroxy-PUFA using isocratic mobile phase (hexane:isopropanol; 97.5:2.5, vol:vol, with a 0.6 ml/min flow rate).” left out

In the case of `CCC=CCC(O)C=CC=CCC=CCC=CC=CC(O)CCC(=O)O` (stereo not drawn) [4,17S-diHDHA], the “effectiveness relative to 10,17-docosatriene” value [1] is reported as “essentially equally effective”, the “potency relative to comparator at equal dose” value ([2]; PMN/leukocyte infiltration, FIG. 16 and FIG. 18) is reported as “approximately half as potent as 10,17-docosatriene” and the “inhibition of PMN/leukocyte infiltration” value [2] is reported as “dose-dependent inhibition”.
In the case of `CC/C=C\CC(O)/C=C/C=C\C/C=C\C/C=C\C/C=C\CCC(=O)O` (stereo not drawn) [17R-HDHA, 17-hydroxy-docosa-4Z,7Z,10Z,13Z,15E,19Z-hexaenoic acid], the “direct impact on PMN transmigration across endothelial monolayers” value [3] is reported as “did not directly inhibit”, the IC50 [4] is reported as ~50 pM and the “regulation of PMN/leukocyte recruitment into the air pouch” value [5] is reported as “did regulate in vivo PMN exudate cell numbers”. For the same molecule, the formation of leukotrienes [6] was “prevented formation of leukotrienes”, the formation of leukotrienes [7] was “prevented formation of leukotrienes” and the “inhibition of PMN/leukocyte infiltration” value [2] was “potent inhibitor”.
In the case of `CC(=O)Oc1ccccc1C(=O)O` [ASA, aspirin], the “in vivo production of thromboxane and prostanoids” value [8] is reported as “completely inhibited”, the “% Increase of 17-HDHA” value ([9]; NSAID incubated 30 min with COX-2, ASA 2 mM, indomethacin 200 μM, acetaminophen 500 μM, NS398 100 μM, mean±SEM, n=3) is reported as 97.8 ± 2.0% and the inhibition at 2000 µM ([9]; read-out: % Inhibition of 13-HDHA) is reported as 85.7 ± 5.6%.
In the case of `CCCCC/C=C\C/C=C\C/C=C\C/C=C\CCCC(=O)O` [C20:4, arachidonic acid], the substrate conversion [10] is reported as 67%±5%.
